Where two headings read alike, the source gives them in different places.
Legend:
NSD2 [1-1365] = NSD2 [1-1365] (Homo sapiens (Human), UniProt O96028); experiment: LC-MS/MS-based NSD2 enzymatic assay (SAH production); type: biochemical; conditions: read-out: NSD2 IC50
Procedure, shortened: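 Full-length NSD2 [1-1365] (8 nM final) with 1 μM SAM and 400 nM mouse-liver nucleosome in Tris pH 8.0 buffer; inhibitor preincubated 20 min with enzyme/SAM before nucleosome addition. Reaction 90 min at room temperature, TFA-quenched; SAH quantified by LC-MS/MS against d4-SAH internal standard and SAH standard curve.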

[1] = tested on: cellular H3K36me2 level in thyroid carcinoma cell line CGTH-W-1 (NSD2 E1099K); experiment: H3K36me2 cellular ELISA assay in CGTH-W-1 line; type: cell-based; conditions: Homo sapiens, CGTH-W-1, 72 h, read-out: H3K36me2 ELISA in CGTH-W-1
Procedure, shortened: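 CGTH-W-1 thyroid carcinoma cells (NSD2 E1099K gain-of-function) exposed to compound for 72 hours. Histone-bound plates probed for H3K36me2 and total H3 by chemiluminescent ELISA. Viability checked on a parallel plate with CellTiter-Glo.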

[2] = tested on: cellular H3K36me2 level in multiple myeloma cell line KMS11 (t(4;14)+); experiment: H3K36me2 cellular ELISA assay in KMS11-Par line; type: cell-based; conditions: Homo sapiens, KMS-11, ELISA, read-out: H3K36me2 ELISA in KMS11-Par
Procedure, shortened: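 KMS11 cells were seeded a day ahead at 1,250 per well in Opti-MEM with B-27/N2, then treated with compound for 72 h. Histones were acid-extracted with 0.4M HCl, and H3K36me2 and total H3 were read by chemiluminescent ELISA. Viability was checked with CellTiter-Glo on a parallel plate in maintenance media.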

[3] = NSD2 biochemical activity, class symbols
[4] = KMS11-Par line (t(4;14)+), 72 hours treatment

NSD2 [1-1365], sequence (O96028 whole entry): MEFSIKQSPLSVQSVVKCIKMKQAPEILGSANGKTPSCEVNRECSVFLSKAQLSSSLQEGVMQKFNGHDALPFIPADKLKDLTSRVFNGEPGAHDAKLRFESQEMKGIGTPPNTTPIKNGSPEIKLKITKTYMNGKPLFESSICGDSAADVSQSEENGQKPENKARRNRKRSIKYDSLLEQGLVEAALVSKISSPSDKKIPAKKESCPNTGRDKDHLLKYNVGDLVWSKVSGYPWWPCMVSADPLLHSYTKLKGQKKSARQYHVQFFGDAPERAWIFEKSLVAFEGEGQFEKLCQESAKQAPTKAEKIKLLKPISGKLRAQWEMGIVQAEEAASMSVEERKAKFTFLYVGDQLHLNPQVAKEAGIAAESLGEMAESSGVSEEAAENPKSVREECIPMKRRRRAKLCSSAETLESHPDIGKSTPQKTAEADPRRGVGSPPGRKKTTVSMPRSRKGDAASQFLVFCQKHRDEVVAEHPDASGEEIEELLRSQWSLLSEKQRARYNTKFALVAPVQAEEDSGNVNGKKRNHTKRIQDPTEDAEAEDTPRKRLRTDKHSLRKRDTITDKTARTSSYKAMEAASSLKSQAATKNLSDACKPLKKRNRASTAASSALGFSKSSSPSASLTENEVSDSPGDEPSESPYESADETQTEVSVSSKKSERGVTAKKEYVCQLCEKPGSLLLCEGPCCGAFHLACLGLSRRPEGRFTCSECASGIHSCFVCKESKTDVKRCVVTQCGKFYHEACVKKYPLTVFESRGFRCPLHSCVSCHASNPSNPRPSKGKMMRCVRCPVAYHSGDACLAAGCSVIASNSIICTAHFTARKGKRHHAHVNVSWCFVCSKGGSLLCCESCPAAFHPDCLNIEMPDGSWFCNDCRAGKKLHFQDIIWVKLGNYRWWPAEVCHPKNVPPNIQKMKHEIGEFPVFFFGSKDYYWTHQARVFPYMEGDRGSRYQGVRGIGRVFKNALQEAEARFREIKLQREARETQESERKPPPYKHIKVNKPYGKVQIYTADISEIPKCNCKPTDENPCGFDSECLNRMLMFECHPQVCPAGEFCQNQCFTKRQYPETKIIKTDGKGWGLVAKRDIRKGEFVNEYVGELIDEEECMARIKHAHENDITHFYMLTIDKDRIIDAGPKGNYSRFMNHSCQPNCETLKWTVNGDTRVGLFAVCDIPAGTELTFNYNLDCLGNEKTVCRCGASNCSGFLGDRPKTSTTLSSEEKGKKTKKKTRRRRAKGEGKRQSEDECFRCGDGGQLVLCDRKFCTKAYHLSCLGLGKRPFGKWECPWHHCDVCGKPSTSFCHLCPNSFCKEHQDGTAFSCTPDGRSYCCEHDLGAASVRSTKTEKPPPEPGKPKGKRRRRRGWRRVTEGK

| SMILES | IC50 (NSD2 [1-1365]; [3]) | IC50 [1] | IC50 [2, 4] | IC50 (NSD2 [1-1365]) | IC50 ([2]; KMS11-Par line, 72 hours) |
| --- | --- | --- | --- | --- | --- |
| Nc1ncnc2c1ncn2Cc1cc(-c2cc(F)c(F)cc2F)ncc1N1CCC[C@](N)([C@@H](O)C(F)F)C1 [Example 156, (R)-1-((R)-3-amino-1-(4-((6-amino-9H-purin-9-yl)methyl)-6-(2,4,5-trifluorophenyl)pyridin-3-yl)piperidin-3-yl)-2,2-difluoroethan-1-ol] | 1 to 10 nM | 41 nM | 574 nM |  |  |
| Nc1ncnc2c1ncn2Cc1cc(-c2cc(F)c(F)cc2F)ncc1N1CCC[C@](N)([C@H](O)C(F)F)C1 [Example 157, (S)-1-((R)-3-amino-1-(4-((6-amino-9H-purin-9-yl)methyl)-6-(2,4,5-trifluorophenyl)pyridin-3-yl)piperidin-3-yl)-2,2-difluoroethan-1-ol] | 1 to 10 nM | 385 nM | 1310 nM |  |  |
| Nc1ncnc2c1ncn2Cc1cc(-c2ccc(F)cc2C(F)F)ncc1N1CCC[C@](N)([C@@H](O)C(F)F)C1 [Example 158, (R)-1-((R)-3-amino-1-(4-((6-amino-9H-purin-9-yl)methyl)-6-(2-(difluoromethyl)-4-fluorophenyl)pyridin-3-yl)piperidin-3-yl)-2,2-difluoroethan-1-ol] | 1 to 10 nM | 100 nM | 802 nM |  |  |
| Nc1ncnc2c1ncn2Cc1cc(-c2ccc(F)cc2C(F)F)ncc1N1CCC[C@](N)([C@H](O)C(F)F)C1 [Example 159, (S)-1-((R)-3-amino-1-(4-((6-amino-9H-purin-9-yl)methyl)-6-(2-(difluoromethyl)-4-fluorophenyl)pyridin-3-yl)piperidin-3-yl)-2,2-difluoroethan-1-ol] | 1 to 10 nM | 140 nM | 1130 nM |  |  |
| COc1cc(F)c(-c2cc(Cn3cnc4c(N)ncnc43)c(N3CCC[C@](N)([C@@H](O)C(F)F)C3)cn2)cc1F [Example 160, (R)-1-((R)-3-amino-1-(4-((6-amino-9H-purin-9-yl)methyl)-6-(2,5-difluoro-4-methoxyphenyl)pyridin-3-yl)piperidin-3-yl)-2,2-difluoroethan-1-ol] | 1 to 10 nM | 35 nM | 434 nM |  |  |
| COc1cc(F)c(-c2cc(Cn3cnc4c(N)ncnc43)c(N3CCC[C@](N)([C@H](O)C(F)F)C3)cn2)cc1F [Example 161, (S)-1-((R)-3-amino-1-(4-((6-amino-9H-purin-9-yl)methyl)-6-(2,5-difluoro-4-methoxyphenyl)pyridin-3-yl)piperidin-3-yl)-2,2-difluoroethan-1-ol] | 1 to 10 nM | 73 nM | 502 nM |  |  |
| COc1ccc(-c2cc(Cn3cnc4c(N)ncnc43)c(N3CCC[C@](N)([C@@H](O)C(F)F)C3)cn2)c(C(F)F)c1 [Example 162, (R)-1-((R)-3-amino-1-(4-((6-amino-9H-purin-9-yl)methyl)-6-(2-(difluoromethyl)-4-methoxyphenyl)pyridin-3-yl)piperidin-3-yl)-2,2-difluoroethan-1-ol] | 1 to 10 nM | 86 nM | 440 nM |  |  |
| COc1ccc(-c2cc(Cn3cnc4c(N)ncnc43)c(N3CCC[C@](N)([C@H](O)C(F)F)C3)cn2)c(C(F)F)c1 [Example 163, (S)-1-((R)-3-amino-1-(4-((6-amino-9H-purin-9-yl)methyl)-6-(2-(difluoromethyl)-4-methoxyphenyl)pyridin-3-yl)piperidin-3-yl)-2,2-difluoroethan-1-ol] | 1 to 10 nM | 204 nM | 1850 nM |  |  |
| COc1ccc(-c2cc(Cn3cnc4c(N)ncnc43)c(N3CCC[C@](N)([C@H](O)C(F)F)C3)cn2)c(Cl)c1 [Example 168, (S)-1-((R)-3-amino-1-(4-((6-amino-9H-purin-9-yl)methyl)-6-(2-chloro-4-methoxyphenyl)pyridin-3-yl)piperidin-3-yl)-2,2-difluoroethan-1-ol] |  | 997 nM |  | 10 to 1000 nM | 4780 nM |
| COc1ccc(-c2cc(Cn3cnc4c(N)ncnc43)c(N3CCC[C@](N)([C@@H](O)C(F)F)C3)cn2)c(Cl)c1 [Example 169, (R)-1-((R)-3-amino-1-(4-((6-amino-9H-purin-9-yl)methyl)-6-(2-chloro-4-methoxyphenyl)pyridin-3-yl)piperidin-3-yl)-2,2-difluoroethan-1-ol] |  | 426 nM |  | 10 to 1000 nM | 2990 nM |
| Nc1ncnc2c1ncn2Cc1cc(-c2cc(F)c(F)cc2C(F)F)ncc1N1CCC[C@](N)([C@@H](O)C(F)F)C1 [Example 170, (R)-1-((R)-3-amino-1-(4-((6-amino-9H-purin-9-yl)methyl)-6-(2-(difluoromethyl)-4,5-difluorophenyl)pyridin-3-yl)piperidin-3-yl)-2,2-difluoroethan-1-ol] |  | 161 nM |  | 10 to 1000 nM | 1470 nM |
| Nc1ncnc2c1ncn2Cc1cc(-c2cc(F)c(F)cc2C(F)F)ncc1N1CCC[C@](N)([C@H](O)C(F)F)C1 [Example 171, (S)-1-((R)-3-amino-1-(4-((6-amino-9H-purin-9-yl)methyl)-6-(2-(difluoromethyl)-4,5-difluorophenyl)pyridin-3-yl)piperidin-3-yl)-2,2-difluoroethan-1-ol] |  | 886 nM |  | 10 to 1000 nM | 5520 nM |
| Nc1ncnc2c1ncn2Cc1cc(-c2ccc(F)c(F)c2F)ncc1N1CCC[C@](N)([C@@H](O)C(F)F)C1 [Example 172, (R)-1-((R)-3-amino-1-(4-((6-amino-9H-purin-9-yl)methyl)-6-(2,3,4-trifluorophenyl)pyridin-3-yl)piperidin-3-yl)-2,2-difluoroethan-1-ol] |  | 1200 nM |  | 10 to 1000 nM | 8930 nM |
| COc1cc(F)ccc1-c1cc(Cn2cnc3c(N)ncnc32)c(N2CCC[C@](N)([C@H](O)C(F)F)C2)cn1 [Example 173, (S)-1-((R)-3-amino-1-(4-((6-amino-9H-purin-9-yl)methyl)-6-(4-fluoro-2-methoxyphenyl)pyridin-3-yl)piperidin-3-yl)-2,2-difluoroethan-1-ol] |  | 1040 nM |  | 10 to 1000 nM | 12800 nM |
| COc1cc(F)ccc1-c1cc(Cn2cnc3c(N)ncnc32)c(N2CCC[C@](N)([C@@H](O)C(F)F)C2)cn1 [Example 174, (R)-1-((R)-3-amino-1-(4-((6-amino-9H-purin-9-yl)methyl)-6-(4-fluoro-2-methoxyphenyl)pyridin-3-yl)piperidin-3-yl)-2,2-difluoroethan-1-ol] |  | 1160 nM |  | 10 to 1000 nM | 10600 nM |
| Nc1ncnc2c1ncn2Cc1cc(-c2ccc(F)c(Cl)n2)ncc1N1CCC[C@](N)([C@H](O)C(F)F)C1 [Example 175, (S)-1-((R)-3-amino-1-(4-((6-amino-9H-purin-9-yl)methyl)-6′-chloro-g-fluoro-[2,2′-bipyridin]-5-yl)piperidin-3-yl)-2,2-difluoroethan-1-ol] |  | 534 nM |  | 10 to 1000 nM | 11300 nM |
| Nc1ncnc2c1ncn2Cc1cc(-c2ccc(F)c(Cl)n2)ncc1N1CCC[C@](N)([C@@H](O)C(F)F)C1 [Example 176, (R)-1-((R)-3-amino-1-(4-((6-amino-9H-purin-9-yl)methyl)-6′-chloro-5′-fluoro-[2,2′-bipyridin]-5-yl)piperidin-3-yl)-2,2-difluoroethan-1-ol] |  | 953 nM |  | 10 to 1000 nM | 8970 nM |
| Nc1ncnc2c1ncn2Cc1cc(-c2cnc(F)c(Cl)c2)ncc1N1CCC[C@](N)(c2cccc(Cl)n2)C1 [Example 180, (R)-9-((5-(3-amino-3-(6-chloropyridin-2-yl)piperidin-1-yl)-5′-chloro-6′-fluoro-[2,3′-bipyridin]-4-yl)methyl)-9H-purin-6-amine] |  | 1460 nM |  | 10 to 1000 nM | 5490 nM |
| COc1ccc(-c2cc(Cn3cnc4c(N)ncnc43)c(N3CCC[C@](N)(c4cccc(Cl)n4)C3)cn2)c(F)c1 [Example 181, (R)-9-((5-(3-amino-3-(6-chloropyridin-2-yl)piperidin-1-yl)-2-(2-fluoro-4-methoxyphenyl)pyridin-4-yl)methyl)-9H-purin-6-amine] |  | 1560 nM |  | 10 to 1000 nM | 1980 nM |
| Nc1ncnc2c1ncn2Cc1cc(-c2ccc(F)cc2)ncc1N1CCC[C@](N)(c2cccc(C3CC3)n2)C1 [Example 182, (R)-9-((5-(3-amino-3-(6-cyclopropylpyridin-2-yl)piperidin-1-yl)-2-(4-fluorophenyl)pyridin-4-yl)methyl)-9H-purin-6-amine] |  | 97.5 nM |  | 1 to 10 nM | 142 nM |
| C[C@H](F)c1cccc([C@@]2(N)CCCN(c3cnc(-c4ccc(F)cc4)cc3Cn3cnc4c(N)ncnc43)C2)n1 [Example 183, 9-((5-((R)-3-amino-3-(6-((S)-1-fluoroethyl)pyridin-2-yl)piperidin-1-yl)-2-(4-fluorophenyl)pyridin-4-yl)methyl)-9H-purin-6-amine] |  | 159 nM |  | 10 to 1000 nM | 455 nM |
| COc1cc(F)c(-c2cc(Cn3cnc4c(N)ncnc43)c(N3CCC[C@](N)(c4cccc(Cl)n4)C3)cn2)cc1F [Example 187, (R)-9-((5-(3-amino-3-(6-chloropyridin-2-yl)piperidin-1-yl)-2-(2,5-difluoro-4-methoxyphenyl)pyridin-4-yl)methyl)-9H-purin-6-amine] |  | 383 nM |  | 10 to 1000 nM | 815 nM |
